In the NIST ThermoML archive (doi:10.1021/je400184t):
± gives the expanded uncertainty stated by the source.

Assay: excess molar enthalpy (molar enthalpy of mixing); xn = mol fraction of the nth substance listed
Details: 298.15 K, 101 kPa, Liquid, Calvet calorimetry

In the case of `CN(CCO)CCO` [N-methyldiethanolamine] + c1ccncc1, the excess molar enthalpy (x2 = 0.5606) is reported as -0.0203 ± 0.000478 kcal/mol, the excess molar enthalpy (x2 = 0.5629) is reported as -0.0203 ± 0.000478 kcal/mol and the excess molar enthalpy (x2 = 0.5652) is reported as -0.0201 ± 0.000478 kcal/mol. It also gave an excess molar enthalpy (x2 = 0.5675) of -0.0201 ± 0.000478 kcal/mol, an excess molar enthalpy (x2 = 0.5698) of -0.0198 ± 0.000478 kcal/mol and an excess molar enthalpy (x2 = 0.5721) of -0.0198 ± 0.000478 kcal/mol. The excess molar enthalpy (x2 = 0.5744) was -0.0191 ± 0.000478 kcal/mol, the excess molar enthalpy (x2 = 0.5767) was -0.0196 ± 0.000478 kcal/mol and the excess molar enthalpy (x2 = 0.579) was -0.0194 ± 0.000478 kcal/mol. For the same compound, the excess molar enthalpy (x2 = 0.5813) was -0.0194 ± 0.000478 kcal/mol, the excess molar enthalpy (x2 = 0.5836) was -0.0191 ± 0.000478 kcal/mol and the excess molar enthalpy (x2 = 0.5859) was -0.0191 ± 0.000478 kcal/mol. For the same compound, the excess molar enthalpy (x2 = 0.5882) was -0.0189 ± 0.000478 kcal/mol, the excess molar enthalpy (x2 = 0.5905) was -0.0189 ± 0.000478 kcal/mol and the excess molar enthalpy (x2 = 0.5928) was -0.0186 ± 0.000478 kcal/mol. It also gave an excess molar enthalpy (x2 = 0.595) of -0.0186 ± 0.000478 kcal/mol, an excess molar enthalpy (x2 = 0.5974) of -0.0184 ± 0.000478 kcal/mol and an excess molar enthalpy (x2 = 0.5996) of -0.0182 ± 0.000478 kcal/mol. For the same compound, the excess molar enthalpy (x2 = 0.6019) was -0.0182 ± 0.000478 kcal/mol, the excess molar enthalpy (x2 = 0.6042) was -0.0179 ± 0.000478 kcal/mol and the excess molar enthalpy (x2 = 0.6065) was -0.0179 ± 0.000478 kcal/mol. The excess molar enthalpy (x2 = 0.6088) was -0.0177 ± 0.000478 kcal/mol, the excess molar enthalpy (x2 = 0.6111) was -0.0177 ± 0.000478 kcal/mol and the excess molar enthalpy (x2 = 0.6134) was -0.0174 ± 0.000478 kcal/mol. The excess molar enthalpy (x2 = 0.6157) was -0.0174 ± 0.000478 kcal/mol, the excess molar enthalpy (x2 = 0.618) was -0.0172 ± 0.000478 kcal/mol and the excess molar enthalpy (x2 = 0.6203) was -0.0172 ± 0.000478 kcal/mol. For the same compound, the excess molar enthalpy (x2 = 0.6226) was -0.017 ± 0.000478 kcal/mol, the excess molar enthalpy (x2 = 0.6249) was -0.0167 ± 0.000478 kcal/mol and the excess molar enthalpy (x2 = 0.6272) was -0.0167 ± 0.000478 kcal/mol. The excess molar enthalpy (x2 = 0.6295) was -0.0165 ± 0.000478 kcal/mol, the excess molar enthalpy (x2 = 0.6318) was -0.0165 ± 0.000478 kcal/mol and the excess molar enthalpy (x2 = 0.6341) was -0.0163 ± 0.000478 kcal/mol. For the same compound, the excess molar enthalpy (x2 = 0.6363) was -0.0163 ± 0.000478 kcal/mol, the excess molar enthalpy (x2 = 0.6386) was -0.016 ± 0.000478 kcal/mol and the excess molar enthalpy (x2 = 0.6409) was -0.016 ± 0.000478 kcal/mol. The excess molar enthalpy (x2 = 0.6432) was -0.0158 ± 0.000478 kcal/mol, the excess molar enthalpy (x2 = 0.6455) was -0.0155 ± 0.000478 kcal/mol and the excess molar enthalpy (x2 = 0.6478) was -0.0155 ± 0.000478 kcal/mol. It also gave an excess molar enthalpy (x2 = 0.6501) of -0.0153 ± 0.000478 kcal/mol, an excess molar enthalpy (x2 = 0.6524) of -0.0153 ± 0.000478 kcal/mol and an excess molar enthalpy (x2 = 0.6547) of -0.0151 ± 0.000478 kcal/mol. It also gave an excess molar enthalpy (x2 = 0.657) of -0.0148 ± 0.000478 kcal/mol, an excess molar enthalpy (x2 = 0.6593) of -0.0148 ± 0.000478 kcal/mol and an excess molar enthalpy (x2 = 0.6616) of -0.0146 ± 0.000478 kcal/mol. The excess molar enthalpy (x2 = 0.6639) was -0.0146 ± 0.000478 kcal/mol, the excess molar enthalpy (x2 = 0.6662) was -0.0143 ± 0.000478 kcal/mol and the excess molar enthalpy (x2 = 0.6685) was -0.0143 ± 0.000478 kcal/mol. The excess molar enthalpy (x2 = 0.6707) was -0.0141 ± 0.000478 kcal/mol, the excess molar enthalpy (x2 = 0.6731) was -0.0139 ± 0.000478 kcal/mol and the excess molar enthalpy (x2 = 0.6753) was -0.0139 ± 0.000478 kcal/mol. It also gave an excess molar enthalpy (x2 = 0.6776) of -0.0136 ± 0.000478 kcal/mol, an excess molar enthalpy (x2 = 0.6799) of -0.0136 ± 0.000478 kcal/mol and an excess molar enthalpy (x2 = 0.6822) of -0.0134 ± 0.000478 kcal/mol. It also gave an excess molar enthalpy (x2 = 0.6845) of -0.0131 ± 0.000478 kcal/mol, an excess molar enthalpy (x2 = 0.6868) of -0.0131 ± 0.000478 kcal/mol and an excess molar enthalpy (x2 = 0.6891) of -0.0129 ± 0.000478 kcal/mol. For the same compound, the excess molar enthalpy (x2 = 0.6914) was -0.0127 ± 0.000478 kcal/mol, the excess molar enthalpy (x2 = 0.6937) was -0.0127 ± 0.000478 kcal/mol and the excess molar enthalpy (x2 = 0.696) was -0.0124 ± 0.000478 kcal/mol. The excess molar enthalpy (x2 = 0.6983) was -0.0124 ± 0.000478 kcal/mol, the excess molar enthalpy (x2 = 0.7006) was -0.0122 ± 0.000478 kcal/mol and the excess molar enthalpy (x2 = 0.7029) was -0.012 ± 0.000478 kcal/mol. The excess molar enthalpy (x2 = 0.7052) was -0.012 ± 0.000478 kcal/mol, the excess molar enthalpy (x2 = 0.7075) was -0.0117 ± 0.000478 kcal/mol and the excess molar enthalpy (x2 = 0.7097) was -0.0115 ± 0.000478 kcal/mol. It also gave an excess molar enthalpy (x2 = 0.712) of -0.0115 ± 0.000478 kcal/mol, an excess molar enthalpy (x2 = 0.7143) of -0.0112 ± 0.000478 kcal/mol and an excess molar enthalpy (x2 = 0.7166) of -0.0112 ± 0.000478 kcal/mol. For the same compound, the excess molar enthalpy (x2 = 0.7189) was -0.011 ± 0.000478 kcal/mol, the excess molar enthalpy (x2 = 0.7212) was -0.0108 ± 0.000478 kcal/mol and the excess molar enthalpy (x2 = 0.7235) was -0.0108 ± 0.000478 kcal/mol. It also gave an excess molar enthalpy (x2 = 0.7258) of -0.0105 ± 0.000478 kcal/mol, an excess molar enthalpy (x2 = 0.7281) of -0.0103 ± 0.000478 kcal/mol and an excess molar enthalpy (x2 = 0.7304) of -0.0103 ± 0.000478 kcal/mol. The excess molar enthalpy (x2 = 0.7327) was -0.01 ± 0.000478 kcal/mol, the excess molar enthalpy (x2 = 0.735) was -0.0098 ± 0.000478 kcal/mol and the excess molar enthalpy (x2 = 0.7373) was -0.0098 ± 0.000478 kcal/mol. For the same compound, the excess molar enthalpy (x2 = 0.7396) was -0.00956 ± 0.000478 kcal/mol, the excess molar enthalpy (x2 = 0.7419) was -0.00956 ± 0.000478 kcal/mol and the excess molar enthalpy (x2 = 0.7442) was -0.00932 ± 0.000478 kcal/mol. The excess molar enthalpy (x2 = 0.7464) was -0.00908 ± 0.000478 kcal/mol, the excess molar enthalpy (x2 = 0.7488) was -0.00908 ± 0.000478 kcal/mol and the excess molar enthalpy (x2 = 0.751) was -0.00884 ± 0.000478 kcal/mol. It also gave an excess molar enthalpy (x2 = 0.7533) of -0.0086 ± 0.000478 kcal/mol, an excess molar enthalpy (x2 = 0.7556) of -0.0086 ± 0.000478 kcal/mol and an excess molar enthalpy (x2 = 0.7579) of -0.00837 ± 0.000478 kcal/mol. For the same compound, the excess molar enthalpy (x2 = 0.7602) was -0.00813 ± 0.000478 kcal/mol, the excess molar enthalpy (x2 = 0.7625) was -0.00813 ± 0.000478 kcal/mol and the excess molar enthalpy (x2 = 0.7648) was -0.00789 ± 0.000478 kcal/mol. The excess molar enthalpy (x2 = 0.7671) was -0.00765 ± 0.000478 kcal/mol, the excess molar enthalpy (x2 = 0.7694) was -0.00765 ± 0.000478 kcal/mol and the excess molar enthalpy (x2 = 0.7717) was -0.00741 ± 0.000478 kcal/mol. It also gave an excess molar enthalpy (x2 = 0.774) of -0.00717 ± 0.000478 kcal/mol, an excess molar enthalpy (x2 = 0.7763) of -0.00717 ± 0.000478 kcal/mol and an excess molar enthalpy (x2 = 0.7786) of -0.00693 ± 0.000478 kcal/mol. For the same compound, the excess molar enthalpy (x2 = 0.7809) was -0.00669 ± 0.000478 kcal/mol, the excess molar enthalpy (x2 = 0.7827) was -0.00669 ± 0.000478 kcal/mol and the excess molar enthalpy (x2 = 0.7869) was -0.00645 ± 0.000478 kcal/mol. For the same compound, the excess molar enthalpy (x2 = 0.7911) was -0.00598 ± 0.000478 kcal/mol, the excess molar enthalpy (x2 = 0.7953) was -0.00574 ± 0.000478 kcal/mol and the excess molar enthalpy (x2 = 0.7996) was -0.0055 ± 0.000478 kcal/mol. The excess molar enthalpy (x2 = 0.8039) was -0.00526 ± 0.000478 kcal/mol, the excess molar enthalpy (x2 = 0.8083) was -0.00502 ± 0.000478 kcal/mol and the excess molar enthalpy (x2 = 0.8127) was -0.00454 ± 0.000478 kcal/mol. It also gave an excess molar enthalpy (x2 = 0.8172) of -0.0043 ± 0.000478 kcal/mol, an excess molar enthalpy (x2 = 0.8217) of -0.00406 ± 0.000478 kcal/mol and an excess molar enthalpy (x2 = 0.8263) of -0.00359 ± 0.000478 kcal/mol. The excess molar enthalpy (x2 = 0.8309) was -0.00335 ± 0.000478 kcal/mol, the excess molar enthalpy (x2 = 0.8356) was -0.00311 ± 0.000478 kcal/mol and the excess molar enthalpy (x2 = 0.8404) was -0.00287 ± 0.000478 kcal/mol. For the same compound, the excess molar enthalpy (x2 = 0.8451) was -0.00239 ± 0.000478 kcal/mol, the excess molar enthalpy (x2 = 0.85) was -0.00215 ± 0.000478 kcal/mol and the excess molar enthalpy (x2 = 0.8549) was -0.00191 ± 0.000478 kcal/mol. The excess molar enthalpy (x2 = 0.8598) was -0.00167 ± 0.000478 kcal/mol, the excess molar enthalpy (x2 = 0.8648) was -0.0012 ± 0.000478 kcal/mol and the excess molar enthalpy (x2 = 0.8699) was -0.000956 ± 0.000478 kcal/mol. For the same compound, the excess molar enthalpy (x2 = 0.875) was -0.000717 ± 0.000478 kcal/mol, the excess molar enthalpy (x2 = 0.8802) was -0.000478 ± 0.000478 kcal/mol and the excess molar enthalpy (x2 = 0.8855) was -0.000239 ± 0.000478 kcal/mol. It also gave an excess molar enthalpy (x2 = 0.8908) of 0 ± 0.000478 kcal/mol, an excess molar enthalpy (x2 = 0.8962) of 0.000239 ± 0.000478 kcal/mol and an excess molar enthalpy (x2 = 0.9016) of 0.000478 ± 0.000478 kcal/mol. The excess molar enthalpy (x2 = 0.9071) was 0.000717 ± 0.000478 kcal/mol, the excess molar enthalpy (x2 = 0.9127) was 0.000956 ± 0.000478 kcal/mol and the excess molar enthalpy (x2 = 0.9183) was 0.0012 ± 0.000478 kcal/mol. It also gave an excess molar enthalpy (x2 = 0.9241) of 0.00143 ± 0.000478 kcal/mol, an excess molar enthalpy (x2 = 0.9298) of 0.00143 ± 0.000478 kcal/mol and an excess molar enthalpy (x2 = 0.9357) of 0.00167 ± 0.000478 kcal/mol. The excess molar enthalpy (x2 = 0.9416) was 0.00167 ± 0.000478 kcal/mol, the excess molar enthalpy (x2 = 0.9477) was 0.00167 ± 0.000478 kcal/mol and the excess molar enthalpy (x2 = 0.9538) was 0.00191 ± 0.000478 kcal/mol. For the same compound, the excess molar enthalpy (x2 = 0.9599) was 0.00167 ± 0.000478 kcal/mol, the excess molar enthalpy (x2 = 0.9662) was 0.00167 ± 0.000478 kcal/mol and the excess molar enthalpy (x2 = 0.9725) was 0.00167 ± 0.000478 kcal/mol. The excess molar enthalpy (x2 = 0.9789) was 0.00143 ± 0.000478 kcal/mol, the excess molar enthalpy (x2 = 0.9854) was 0.0012 ± 0.000478 kcal/mol and the excess molar enthalpy (x2 = 0.992) was 0.000717 ± 0.000478 kcal/mol. The excess molar enthalpy (x2 = 0.9987) was 0.000239 ± 0.000478 kcal/mol.
